In brackets after ≈: the same amount, converted by molar mass. Activity calls are given as the source filed them. The calls are words filed in the database; no cut-off is given here.
Legend:
[1] = target: Peptidyl-prolyl cis-trans isomerase NIMA-interacting 1 (Homo sapiens, UniProt Q13526); test: Inhibition of Pin1 (unknown origin)
HT-29 [2] = test: Antiproliferative activity against human HT-29 cells; type: functional, cell-based
[3] = Lipophilicity, log P of the compound; type: physicochemical; settings: octanol/water
[4] = Aqueous solubility of the compound; type: physicochemical; settings: buffer
[5] = Dissociation constant, pKa of the compound; type: physicochemical
HT-29 [6] = test: Cell cycle arrest in human HT-29 cells assessed as cells accumulation at G0/G1 phase at 50 uM by FACS analysis (reference value: 56.9%); type: functional
HT-29 [7] = test: Cell cycle arrest in human HT-29 cells assessed as cells accumulation at S phase at 50 uM by FACS analysis (reference value: 37%); type: functional
HT-29 [8] = test: Cell cycle arrest in human HT-29 cells assessed as cells accumulation at G2/M phase at 50 uM by FACS analysis (reference value: 6.2%); type: functional
HT-29 [9] = test: Cell cycle arrest in human HT-29 cells assessed as cells accumulation at sub G1 phase at 50 uM by FACS analysis (Rvb =<1%); type: functional
HT-29 [10] = test: Induction of histological changes in human HT-29 cells assessed as fragmented phenotype at 50 uM by DAPI staining; type: functional, cell-based

Sequence of Peptidyl-prolyl cis-trans isomerase NIMA-interacting 1 (Q13526 whole entry): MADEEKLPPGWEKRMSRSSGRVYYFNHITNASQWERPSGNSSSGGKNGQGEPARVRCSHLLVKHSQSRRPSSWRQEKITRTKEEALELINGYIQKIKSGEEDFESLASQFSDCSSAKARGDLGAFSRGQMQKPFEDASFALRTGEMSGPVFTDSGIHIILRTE

Structure (SMILES): O=C(N[C@H](Cc1nc2cc(F)ccc2[nH]1)C(=O)O)c1ccc2ccccc2c1
- Ki [1]: 80 nM

Structure (SMILES): O=C(O)C1(Cc2cc3ccc(F)cc3[nH]2)CSC(CC2c3ccccc3-c3ccccc32)=N1 (racemic)
- IC50 (HT-29 [2]): 4200 nM
- Ki [1]: 320 nM

Structure (SMILES): O=C(NC(Cc1cc2ccccc2o1)C(=O)O)c1ccc2ccccc2c1 (centres undefined)
- Ki [1]: 10000 nM

Structure (SMILES): O=C(CC1c2ccccc2-c2ccccc21)N[C@H](Cc1cc2ccc(F)cc2[nH]1)C(=O)O
- Ki [1]: 12 nM
- logP [3]: 3.6
- solubility [4]: > 100 µg/mL
- pKa [5]: 3.9

Structure (SMILES): O=C(NC(Cc1nc2ccccc2[nH]1)C(=O)O)c1ccc2ccccc2c1 (racemic)
- Ki [1]: 1000 nM

Structure (SMILES): Cc1ccc2[nH]c(C[C@@H](NC(=O)c3cc4ccccc4s3)C(=O)O)nc2c1
- Ki [1]: 424 nM

Structure (SMILES): O=C(Cc1cccc2ccccc12)N[C@H](Cc1cc2ccc(F)cc2[nH]1)C(=O)O
- Ki [1]: 400 nM
- logP [3]: 2.49
- solubility [4]: 106 µg/mL (≈ 272 µM)
- pKa [5]: 3.91

Structure (SMILES): Cc1ccc2[nH]c(C[C@@H](NC(=O)c3ccc4ccccc4c3)C(=O)O)nc2c1
- Ki [1]: 780 nM

Structure (SMILES): O=C(NC(Cc1cc2ccccc2[nH]1)C(=O)O)c1ccc2ccccc2c1 (centres undefined)
- Ki [1]: 1900 nM

Structure (SMILES): O=C(N[C@H](Cc1nc2cc(Cl)ccc2[nH]1)C(=O)O)c1ccc2ccccc2c1
- Ki [1]: 173 nM

Structure (SMILES): O=C(CCc1c(Cl)cccc1Cl)N[C@H](Cc1cc2ccc(F)cc2[nH]1)C(=O)O
- Ki [1]: 75 nM
- logP [3]: 3.5
- solubility [4]: > 100 µg/mL
- pKa [5]: 3.9

Structure (SMILES): O=C(O)C1(Cc2cc3ccc(F)cc3[nH]2)CSC(c2ccc3ccccc3c2)=N1 (racemic)
- Activity (HT-29 [6]): 10.2%
- IC50 (HT-29 [2]): 27000 nM
- Activity (HT-29 [7]): 18.7%
- Activity (HT-29 [8]): 71.1%
- Ki [1]: 1360 nM
- Activity (HT-29 [9]): 5%
- Activity (HT-29 [10]): Active

Structure (SMILES): O=C(O)C1(Cc2cc3ccc(F)cc3[nH]2)CSC(CCc2c(Cl)cccc2Cl)=N1 (racemic)
- IC50 (HT-29 [2]): 4600 nM
- Ki [1]: 196 nM

Structure (SMILES): O=C(N[C@H](Cc1nc2cc(Cl)ccc2[nH]1)C(=O)O)c1cc2ccccc2s1
- Ki [1]: 189 nM

Structure (SMILES): O=C(N[C@H](Cc1cc2ccc(F)cc2[nH]1)C(=O)O)c1ccc2ccccc2c1
- Ki [1]: 138 nM
- logP [3]: 2.59
- solubility [4]: > 120 µg/mL
- pKa [5]: 3.92

Structure (SMILES): O=C(N[C@H](Cc1nc2ccccc2s1)C(=O)O)c1ccc2ccccc2c1
- Ki [1]: 46000 nM

Structure (SMILES): O=C(O)C1(Cc2cc3ccc(F)cc3[nH]2)CSC(/C=C/c2c(Cl)cccc2Cl)=N1 (racemic)
- IC50 (HT-29 [2]): 1900 nM
- Ki [1]: 580 nM

Structure (SMILES): O=C(N[C@H](Cc1nc2cc(F)ccc2[nH]1)C(=O)O)c1cc2ccccc2s1
- Ki [1]: 76 nM

Reference: ChEMBL document CHEMBL3352145, “Structure-based design of novel human Pin1 inhibitors (III): optimizing affinity beyond the phosphate recognition pocket” (Bioorg Med Chem Lett, 2014)
